Data: ChEMBL document CHEMBL1201862, “PubChem BioAssay data set” (2004)
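In this assay, cells in 96-well plates receive the compound at five concentrations for 48 hours. Endpoints are linearly interpolated between the surrounding concentrations. Here, GI50 denotes the concentration required for 50% inhibition of growth.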 Calls of active or inactive are those of the source. Rule as the data show it: active = GI50 up to about 1.1 µM and inactive = higher.

How the values were obtained:
Experiment in all cases: DTP human tumour cell line panel, 48 h
SK-MEL-28 = tested on: SK-MEL-28
HOP-62 = tested on: HOP-62
HT-29 = tested on: HT-29
NCI-H226 = tested on: NCI-H226
SF-268 = tested on: SF-268
UO-31 = tested on: UO-31
NCI-H23 = tested on: NCI-H23
SNB-19 = tested on: SNB-19
MCF7 = tested on: MCF7
OVCAR-3 = tested on: OVCAR-3
SN12C = tested on: SN12C
ACHN = tested on: ACHN
MOLT-4 = tested on: MOLT-4
NCI-H460 = tested on: NCI-H460
CCRF-CEM = tested on: CCRF-CEM
M19-MEL = tested on: M19-MEL
KM-20L2 = tested on: KM-20L2
DMS-273 = tested on: DMS-273
HOP-18 = tested on: HOP-18
XF498 = tested on: XF498

Structure (SMILES) | GI50 (SK-MEL-28) | GI50 (HOP-62) | GI50 (HT-29) | GI50 (NCI-H226) | GI50 (SF-268) | GI50 (UO-31) | GI50 (NCI-H23) | GI50 (SNB-19) | GI50 (MCF7) | GI50 (OVCAR-3) | GI50 (SN12C) | GI50 (ACHN) | GI50 (MOLT-4) | GI50 (NCI-H460) | GI50 (CCRF-CEM) | GI50 (M19-MEL) | GI50 (KM-20L2) | GI50 (DMS-273) | GI50 (HOP-18) | GI50 (XF498)
CC1(C23CC4CC(CC(C4)C2)C3)n2c(=O)n(-c3ccccc3)c(=O)n2C1(C)C12CC3CC(CC(C3)C1)C2 (configuration not stated) | > 100 µM (inactive) | > 100 µM (inactive) | > 100 µM (inactive) | > 100 µM (inactive) | > 100 µM (inactive) | > 100 µM (inactive) | > 100 µM (inactive) | > 100 µM (inactive) | > 100 µM (inactive) | > 100 µM (inactive) | > 100 µM (inactive) | > 100 µM (inactive) | > 100 µM (inactive) | > 100 µM (inactive) | > 100 µM (inactive) | – | – | – | – | –
O=C(O)CN(CC(=O)O)C1CCCCC1N(CC(=O)O)CC(=O)NCCN=C=S (configuration not stated) | > 100 µM (inactive) | > 100 µM (inactive) | > 100 µM (inactive) | > 100 µM (inactive) | > 100 µM (inactive) | > 100 µM (inactive) | > 100 µM (inactive) | > 100 µM (inactive) | > 100 µM (inactive) | > 100 µM (inactive) | > 100 µM (inactive) | > 100 µM (inactive) | > 100 µM (inactive) | > 100 µM (inactive) | > 100 µM (inactive) | – | – | – | – | –
O=c1c(Cc2ccc(Cc3c(O)oc4ccccc4c3=O)cc2)c(O)oc2ccccc12 | > 100 µM (inactive) | > 100 µM (inactive) | > 100 µM (inactive) | > 100 µM (inactive) | > 100 µM (inactive) | 42 µM (inactive) | > 100 µM (inactive) | – | > 100 µM (inactive) | > 100 µM (inactive) | > 100 µM (inactive) | – | > 100 µM (inactive) | > 100 µM (inactive) | > 100 µM (inactive) | – | – | – | – | –
CC(C)(C)C1(c2ccc(C3(c4ccccc4)Oc4ccccc4S3)[nH]2)Oc2ccccc2S1 (configuration not stated) | – | > 100 µM (inactive) | > 100 µM (inactive) | 55 µM (inactive) | > 100 µM (inactive) | 90.4 µM (inactive) | > 100 µM (inactive) | > 100 µM (inactive) | – | > 100 µM (inactive) | > 100 µM (inactive) | > 100 µM (inactive) | 65.5 µM (inactive) | > 100 µM (inactive) | > 100 µM (inactive) | > 100 µM (inactive) | > 100 µM (inactive) | > 100 µM (inactive) | > 100 µM (inactive) | 32.5 µM (inactive)
NC(=O)CCC(N=C(N)c1csc(C2OC(CO)C(O)C2O)n1)C(=O)O (configuration not stated) | > 100 µM (inactive) | – | > 100 µM (inactive) | – | > 100 µM (inactive) | – | > 100 µM (inactive) | – | – | – | > 100 µM (inactive) | > 100 µM (inactive) | > 100 µM (inactive) | – | > 100 µM (inactive) | – | > 100 µM (inactive) | > 100 µM (inactive) | < 0.01 µM (active) | > 100 µM (inactive)
COc1cc(-c2ccc(/N=N/c3ccc4c(S(=O)(=O)O)cc(S(=O)(=O)O)c(N)c4c3O)c(OC)c2)ccc1/N=N/c1ccc2c(S(=O)(=O)O)cc(S(=O)(=O)O)c(N)c2c1O | > 100 µM (inactive) | > 100 µM (inactive) | > 100 µM (inactive) | > 87.5 µM (inactive) | > 100 µM (inactive) | > 100 µM (inactive) | > 100 µM (inactive) | > 100 µM (inactive) | > 100 µM (inactive) | > 100 µM (inactive) | > 100 µM (inactive) | – | > 100 µM (inactive) | > 100 µM (inactive) | > 100 µM (inactive) | > 100 µM (inactive) | > 100 µM (inactive) | > 100 µM (inactive) | > 44.3 µM (inactive) | 36.1 µM (inactive)
